Measured values reported in US10905738B2, “Synthetic peptides, prodrugs, pharmaceutical compositions and uses” (Biozeus Desenvolvimento De Produtos Biofarmacêuticos, priority 2018, dated 2021).
Where a SMILES comes first, the peptide text is derived from it.

Assays:
[1] = test system: monocrotaline-induced model of pulmonary arterial hypertension (PAH); assay: hemodynamic parameters and heart remodeling in monocrotaline-induced model of PAH; assay type: in vivo, male Wistar Rats; settings: 0.06 mg/kg intranasal twice daily for 14 days
Excerpt: The monocrotaline (MCT) model is the most widely used animal model of PAH, being the oldest in existence and best described among the available models. This model offers the advantage of mimicking several key aspects of human PAH, including vascular remodeling, proliferation of smooth muscle cells, endothelial dysfunction, up-regulation of inflammatory cytokines, and right ventricle failure, after a single intraperitoneal or subcutaneous MCT injection (GOMEZ-ARROYO, J. G., FARKAS, L., ALHUSSAINI, A. A., FARKAS, D., KRASKAUSKAS, D., VOELKEL, N. F., BOGAARD, H. J. The Monocrotaline Model of Pulmonary Hypertension in Perspective. Am J Physiol Lund Cell Mol Physiol, 302(4): L363-9. 2012).
The currently preferred species for the study of MCT-induced PAH is the rat, with clinical signs of the illness manifesting in 3-7 days after the MCT injection in the form of anorexia, listlessness, failure to gain weight, and tachypnea. As the lung injury and vascular remodeling progress, the animals develop variable degrees of dyspnea, weakness, diarrhea and peripheral cyanosis (SCHOENTAL R., HEAD, M. A. Pathological changes in rats as a result of treatment with monocrotaline. Br J Cancer, 9(1):229-37. 1955). One week after the MCT injection, endothelial damage, inflammatory infiltration, and edema can be observed, but no increase in pulmonary arterial pressure (PAP). After two weeks, PAP is increased leading to right ventricle (RV) hypertrophy by the third week after drug administration (WEST, J., HEMMES, A. Experimental and transgenic models of pulmonary hypertension. Compr Physiol, 1(2):769-82. 2011).
To assess the potential benefit of SEQ ID NO: 19 in the treatment of PAH, we used adult healthy male Wistar Rats, which were then randomized into two groups: monocrotaline-induced PAH (MCT, n=14), in which animals received 60 mg/kg of MCT intraperitoneally (C2401, Sigma Chemical Co., St Louis, Mo., USA, Batch Number: WXBC4737V) and 2) control (CTRL, n=7), in which animals received a similar volume of saline solution intraperitoneally. This would be day 0 of the study. On the same day, prior to being randomized, the animals were subjected to echocardiographic analysis to establish a baseline. On day 14, another echocardiography was done, and PAH animals were further randomized to receive intranasal saline (SAL) or SEQ ID NO: 19 (0.06 mg/kg), twice daily for 14 days. On day 28, echocardiographies were repeated, RV exit area, left ventricle (LV) area, and PAT/PET (pulmonary arterial acceleration time (PAT)/pulmonary arterial ejection time (PET) ratio). In the PAH disease, the increase of PAP leads to an increase in RV area due to the increased pressure, and a decrease in the LV area, due to a reduction in blood flow to the left ventricle. […] Hemodynamic parameters were measured by invasive RV catheterization, including the systolic pressure of RV (RVSP) and the dP/dt ratio (a derivative of pressure/derivative of maximum time), which is correlated to the pressure in the RV.
The experiments were analyzed with two-way ANOVA, followed by Bonferroni's post-test to determine statistical significance. […]

[2] = test system: monocrotaline-induced model of PAH; assay: anti-inflammatory effect in monocrotaline-induced model of PAH (lymph node weight, heart homogenate cytokines by ELISA); assay type: in vivo, male Wistar Rats; settings: 0.06 mg/kg, MCT rats
Excerpt: In the experiment described in example 5, the animals were killed for postmortem analyses of inflammatory markers.
In 1 out of 5 patients with PAH, the mediastinal lymph nodes are enlarged due to inflammation-related edema (BERGIN, C. J., PARK, K. J. Lymph node enlargement in pulmonary arterial hypertension due to chronic thromboembolism. J Med Imaging Radiat Oncol, 52(1):18-23. 2008). Edematous organs weigh more, due to the increased liquid content, therefore we weighed several organs of the animals of example 5 post-euthanasia.
Samples of hearts of the monocrotaline study were investigated to uncover the potential anti-inflammatory action of SEQ ID NO: 19. Hearts were kept on ice during all sample homogenization processes. Lysis buffer containing 1% protease inhibitor cocktail (Sigma) diluted in phosphate-buffered saline (PBS) was added in a proportion of 1 mL for each sample. Sodium orthovanadate (SIGMA) 1 mM was also added. Tissues were homogenized and then centrifuged at 10,000 g for 10 min. Supernatants of each sample were collected into sterile identified tubes for measurements of total protein and cytokine levels (tumor necrosis factor (TNF)-α, interferon (INF)-γ, and interleukin (IL)-1β).
Total protein values in the samples were measured using the Bradford assay (BioRad, Hercules, Calif., USA), according to manufacturer's instructions. Briefly, the protocol was performed in a microplate in a final volume of 150 μl. A calibration curve linear range between 0.025 and 2.0 mg/ml was prepared with bovine serum albumin (BSA, SIGMA). Protein solutions were assayed in duplicate. Samples were diluted 20-fold into lysis buffer, and then 25 μl from these samples was loaded into each well. Using a multichannel pipet, 125 μl of Quick Start™ Bradford 1× Dye Reagent solution was added to yield a final volume of 150 μl. The samples were incubated at room temperature for 5 min, and the absorbance was then measured with a spectrophotometer at 595 nm (SpectraMax Microplate reader, Molecular Devices, San Jose, Calif., USA). The standard curve was plotted as a linear regression line that was interpolated with the mean absorbance of each sample in order to find a sample's total protein concentration expressed as mg/ml.
Concentrations of TNF-α, INF-γ, and IL-1β were measured using an enzyme-linked immunosorbent assay (ELISA) for heart homogenates. TNF-α (Catalog #900-K54) and INF-γ (Catalog #900-K98) kits were purchased from Peprotech (Rocky Hill, […]., USA) while the IL-1β (DY401) kit was from R&D Systems (Minneapolis, Minn., USA). The assays were performed in accordance with the manufacturer's recommendations.
Data analyses were performed with a statistical software package (Prism version 5.0, Graph-Pad Software, San Diego, Calif.). Data were expressed as mean±SEM. […]

[3] = RV catheterization, vs MCT+Vehicle
[4] = echocardiography, vs MCT+vehicle

What does the source list for `CC[C@H](C)[C@H](NC(=O)[C@H](Cc1c[nH]c2ccccc12)NC(=O)[C@H](Cc1ccccc1)NC(C)=O)C(=O)N[C@@H](C)C(=O)N[C@@H](Cc1c[nH]c2ccccc12)C(=O)N[C@@H](Cc1ccc(O)cc1)C(=O)N[C@@H](CCCCN)C(=O)N[C@@H](CC(C)C)C(=O)N[C@@H](C)C(N)=O` [SEQ ID NO: 19, Ac-Phe-Trp-Ile-Ala-Trp-Tyr-Lys-Leu-Ala-NH2] (Ac-FWIAWYKLA-NH2)?
dP/dt Max ratio [1, 3]: decrease; systolic pressure of RV (RVSP) [1, 3]: decrease in RVSP; LV area [1, 4]: increase in LV area; PAT/PET ratio [1, 4]: increases the PAT/PET ratio to values similar to the non-treated group (control); RV exit area [1, 4]: decrease in RV exit area; IL-1β in heart homogenates ([2]; ELISA): decreases the cytokines to values similar to control; INF-γ in heart homogenates ([2]; ELISA): decreases the cytokines to values similar to control; TNF-α in heart homogenates ([2]; ELISA): decreases the cytokines to values similar to control; edematous weight gain of mediastinal lymph nodes ([2]; post-euthanasia organ weight): able to reduce the edematous weight gain
